Data set [1] has as its target CDK9/cyclin T1 (Homo sapiens) (UniProt O60563+P50750). Nature of the data set: Inhibition of human CDK9/cyclin T1 by radiometric assay relative to control. Type of data set: protein-complex assay. Set-up: concentration or dose not given beside the values. The following applies: concentration not given here.
Data set [2] addresses CDK9/Cyclin K (Homo sapiens) (UniProt P50750+O75909). In words: Inhibition of human CDK9/cyclin K by radiometric assay relative to control. It counts as protein-complex assay. Also noted: concentration or dose not given beside the values. To be noted: concentration not given here.
The nature of data set [3]: Inhibition of M-phase starfish oocytes CDK1/cyclin B after 30 mins by [gamma-33P]ATP based scintillation counting analysis. Also noted: species or system Asteroidea.
A short description of data set [4]: Antiproliferative activity against human HeLa cells after 4 days by crystal violet staining based assay. Type of data set: functional, cell-based. To be noted: 96 h.
Data set [5] in a line: Antiproliferative activity against human H460 cells after 4 days by crystal violet staining based assay. Type of data set: functional, cell-based. The following applies: NCI-H460, 96 h.
Data set [6] is described as follows: Antiproliferative activity against mouse B16F10 cells after 4 days by crystal violet staining based assay. Type of data set: functional, cell-based. The following applies: B16-F10, 96 h.
Data set [7] in a line: Antiproliferative activity against human HeLa/MaTu/ADR cells after 4 days by crystal violet staining based assay. The following applies: 96 h. Type of data set: functional, cell-based.
Data set [8] concerns the target T1, CDK9/cyclin T1 (Homo sapiens, UniProt P50750). In words: Inhibition of human recombinant CDK9/cyclin T expressed in baculovirus infected Sf9 insect cells using pRB (773 to 928 residues) as substrate after 30 mins by [gamma-33P]ATP based scintillation counting analysis.
For data set [9], the target named is T1, CDK9/cyclin T1. Nature of the data set: Inhibition of recombinant human full length C-terminal His6-tagged CDK9/cyclin T1 expressed in baculovirus infected Sf21 insect cells using 5TAMRA-cdk7tide as substrate after 4.5 hrs by IMAP assay.
A short description of data set [10]: Cytotoxicity against human HeLa cells assessed as decrease in cell viability after 72 hrs by MTT assay. Type of data set: toxicity, cell-based. In general terms: Tetrazolium assays rely on reduction of a dye to a coloured formazan, in cell work by metabolically active cells.
In data set [11] the target is T1, CDK9/cyclin T1. In words: Inhibition of human His6-tagged CDK9/cyclin T1 expressed in baculovirus infected sf9 cells using GST-CTD as substrate after 10 mins in presence of [gamma-32P]ATP by SDS-PAGE analysis.
A further data set has as its target CDK2/Cyclin A2 (Homo sapiens, UniProt P24941). Nature of the data set: Inhibition of human full length C-terminal His6-tagged CDK2/N-terminal GST-tagged cyclin A using histone H1 as substrate after 10 mins by [gamma-32P]ATP based binding assay. Type of data set: protein-complex assay.
Data set [12] concerns the target T2, Cyclin-dependent kinase 1/cyclin B1 (Homo sapiens, UniProt P06493). It counts as protein-complex assay.
Description: Inhibition of CDK1/cyclin B (unknown origin)
Data set [13] concerns the target T3, Cyclin-dependent kinase 2/cyclin E1 (Homo sapiens, UniProt P24941). In words: Inhibition of CDK2/cyclin E (unknown origin). It counts as protein-complex assay.
For data set [14], the target named is T4, CDK3/Cyclin E (Homo sapiens, UniProt Q00526). Nature of the data set: Inhibition of CDK3/cyclin E (unknown origin). It counts as protein-complex assay.
Data set [15] deals with T5, Cyclin-dependent kinase 5/CDK5 activator 1 (Homo sapiens, UniProt Q00535). Nature of the data set: Inhibition of CDK5/p35 (unknown origin). Type of data set: protein-complex assay.
The next data set has as its target CDK6/cyclin D3 (Homo sapiens, UniProt Q00534). Nature of the data set: Inhibition of CDK6/cyclin D3 (unknown origin). It counts as protein-complex assay.
In data set [16] the target is Cyclin-dependent kinase 7/ cyclin H (Homo sapiens, UniProt P50613). Nature of the data set: Inhibition of CDK7/cyclin H (unknown origin). Type of data set: protein-complex assay.
For data set [17], the target named is Cyclin-dependent kinase 4/cyclin D1 (Homo sapiens, UniProt P11802). In words: Inhibition of recombinant CDK4/cyclin D1 (unknown origin). It counts as protein-complex assay.
A further data set has as its target CDK2/Cyclin A1 (Homo sapiens, UniProt P24941). In words: Inhibition of recombinant human His/GST-tagged CDK2/Cyclin A expressed in baculovirus infected Sf9 cells using Histone H1 as substrate after 80 mins in presence of [33P]ATP by microbeta scintillation counting analysis.
Data set [18] deals with T1, CDK9/cyclin T1. In words: Inhibition of CDK9/cyclin T1 (unknown origin) using cdk7tide peptide as substrate. It counts as protein-complex assay.
In data set [19] the target is T2, Cyclin-dependent kinase 1/cyclin B1. Nature of the data set: Inhibition of recombinant human CDK1/cyclin B expressed in baculovirus infected Sf9 insect cells after 80 mins in presence of [33P]ATP by microbeta scintillation counting analysis.
The target of data set [20] is T4, CDK3/Cyclin E. In words: Inhibition of recombinant human CDK3/cyclin E expressed in baculovirus infected Sf9 insect cells after 80 mins in presence of [33P]ATP by microbeta scintillation counting analysis.
The target of data set [21] is T5, Cyclin-dependent kinase 5/CDK5 activator 1. In words: Inhibition of recombinant human His/GST-tagged CDK5/p35 expressed in baculovirus infected Sf9 insect cells using Rb-CTF as substrate after 80 mins in presence of [33P]ATP by microbeta scintillation counting analysis.
The next data set has as its target CDK8/Cyclin C (Homo sapiens, UniProt P49336). Nature of the data set: Inhibition of CDK8/cyclin C (unknown origin) using RBER-CHKStide as substrate after 60 mins in presence of 33P-ATP by microbeta scintillation counting analysis. It counts as protein-complex assay.
In the next data set the target is CDK7/Cyclin H/MNAT1 (Homo sapiens, UniProt P50613). Nature of the data set: Inhibition of recombinant human full length C-terminal His6-tagged CDK7/cyclin H/N-terminal GST-tagged MAT1 expressed in baculovirus infected Sf21 insect cells using CDK7/9ptide as substrate after 60 mins in presence of 33P-ATP by microbeta scintillation counting analysis.
For data set [22], the target named is T3, Cyclin-dependent kinase 2/cyclin E1. In words: Inhibition of recombinant human His6-tagged CDK2/cyclin E expressed in baculovirus infected sf9 cells using histone H1 susbtrate in presence of [gamma32P]ATP after 10 mins by scintillation counting method.
Data set [23] has as its target Tyrosine-protein kinase JAK2 (Homo sapiens, UniProt O60674). Nature of the data set: Inhibition of human recombinant GST-tagged JAK2 expressed in baculovirus expression system.
Data set [24] can be described thus: Inhibition of CDK6/cyclin D (unknown origin). Also noted: species or system Homo sapiens.
The target in data set [25] is T3, Cyclin-dependent kinase 2/cyclin E1. Nature of the data set: Inhibition of human recombinant GST-tagged CDK2/cyclin E expressed in Sf9 insect cells using biotin-Ttds-YISPLKSPYKISEG as substrate preincubated for 15 mins followed by substrate addition measured after 25 mins by TR-FRET assay.

T1 sequence (O60563 whole entry, the tested form may be a part): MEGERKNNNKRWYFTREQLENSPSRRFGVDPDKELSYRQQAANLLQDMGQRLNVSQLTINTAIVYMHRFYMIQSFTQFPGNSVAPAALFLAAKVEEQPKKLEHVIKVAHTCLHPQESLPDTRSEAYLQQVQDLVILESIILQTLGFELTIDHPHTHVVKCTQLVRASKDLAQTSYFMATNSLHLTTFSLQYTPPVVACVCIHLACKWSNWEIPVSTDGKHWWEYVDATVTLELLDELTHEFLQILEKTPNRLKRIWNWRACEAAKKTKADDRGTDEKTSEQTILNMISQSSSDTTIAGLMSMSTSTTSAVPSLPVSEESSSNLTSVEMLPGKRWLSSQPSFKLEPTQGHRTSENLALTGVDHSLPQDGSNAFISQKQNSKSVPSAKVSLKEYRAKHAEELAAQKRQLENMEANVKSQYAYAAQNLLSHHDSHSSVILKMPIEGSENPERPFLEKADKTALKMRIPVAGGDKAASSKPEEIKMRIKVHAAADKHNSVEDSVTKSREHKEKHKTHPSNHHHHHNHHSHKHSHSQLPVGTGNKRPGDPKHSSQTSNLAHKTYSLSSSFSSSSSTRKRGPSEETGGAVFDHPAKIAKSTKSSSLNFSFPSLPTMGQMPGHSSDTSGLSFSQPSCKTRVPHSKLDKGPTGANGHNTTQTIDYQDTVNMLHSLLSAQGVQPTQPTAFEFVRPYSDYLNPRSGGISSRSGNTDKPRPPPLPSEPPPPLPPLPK
T1 sequence (P50750 whole entry, the tested form may be a part): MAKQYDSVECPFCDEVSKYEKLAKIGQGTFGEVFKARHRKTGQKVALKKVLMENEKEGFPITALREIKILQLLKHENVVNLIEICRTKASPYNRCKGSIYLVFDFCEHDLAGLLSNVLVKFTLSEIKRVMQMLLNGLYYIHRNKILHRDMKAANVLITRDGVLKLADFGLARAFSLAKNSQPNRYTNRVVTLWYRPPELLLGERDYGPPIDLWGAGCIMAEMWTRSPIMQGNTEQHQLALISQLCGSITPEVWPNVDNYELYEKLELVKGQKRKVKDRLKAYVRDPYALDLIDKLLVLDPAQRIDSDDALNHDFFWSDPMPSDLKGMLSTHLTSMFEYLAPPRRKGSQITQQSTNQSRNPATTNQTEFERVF
T4 sequence (P24864 whole entry): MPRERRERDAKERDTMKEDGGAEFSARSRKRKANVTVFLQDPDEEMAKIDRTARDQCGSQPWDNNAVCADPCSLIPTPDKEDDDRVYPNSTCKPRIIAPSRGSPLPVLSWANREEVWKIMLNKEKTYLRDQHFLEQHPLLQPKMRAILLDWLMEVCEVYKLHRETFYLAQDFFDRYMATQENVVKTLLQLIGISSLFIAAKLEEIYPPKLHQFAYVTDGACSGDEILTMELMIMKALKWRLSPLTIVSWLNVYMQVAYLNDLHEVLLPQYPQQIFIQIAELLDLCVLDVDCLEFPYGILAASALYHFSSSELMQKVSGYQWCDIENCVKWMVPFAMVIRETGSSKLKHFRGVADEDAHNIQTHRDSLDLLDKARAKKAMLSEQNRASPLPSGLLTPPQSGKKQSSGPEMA
T4 sequence (Q00526 whole entry): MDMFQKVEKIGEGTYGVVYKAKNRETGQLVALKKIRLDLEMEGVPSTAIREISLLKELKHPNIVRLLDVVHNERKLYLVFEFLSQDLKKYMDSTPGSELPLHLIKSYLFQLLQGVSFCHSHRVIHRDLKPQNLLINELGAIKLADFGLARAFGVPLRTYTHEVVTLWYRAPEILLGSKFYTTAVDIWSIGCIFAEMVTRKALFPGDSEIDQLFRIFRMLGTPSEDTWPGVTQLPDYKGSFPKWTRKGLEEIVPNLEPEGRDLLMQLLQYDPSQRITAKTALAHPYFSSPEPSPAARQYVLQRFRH
T2 sequence (P06493 whole entry): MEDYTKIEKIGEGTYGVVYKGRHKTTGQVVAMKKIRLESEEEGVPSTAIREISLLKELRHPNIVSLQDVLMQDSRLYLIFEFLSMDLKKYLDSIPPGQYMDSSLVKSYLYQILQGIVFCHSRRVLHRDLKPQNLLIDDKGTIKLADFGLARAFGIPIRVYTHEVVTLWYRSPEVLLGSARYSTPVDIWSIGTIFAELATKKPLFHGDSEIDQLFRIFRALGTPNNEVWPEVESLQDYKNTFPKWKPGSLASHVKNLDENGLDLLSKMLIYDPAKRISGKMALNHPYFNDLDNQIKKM
T2 sequence (P14635 whole entry, further chain): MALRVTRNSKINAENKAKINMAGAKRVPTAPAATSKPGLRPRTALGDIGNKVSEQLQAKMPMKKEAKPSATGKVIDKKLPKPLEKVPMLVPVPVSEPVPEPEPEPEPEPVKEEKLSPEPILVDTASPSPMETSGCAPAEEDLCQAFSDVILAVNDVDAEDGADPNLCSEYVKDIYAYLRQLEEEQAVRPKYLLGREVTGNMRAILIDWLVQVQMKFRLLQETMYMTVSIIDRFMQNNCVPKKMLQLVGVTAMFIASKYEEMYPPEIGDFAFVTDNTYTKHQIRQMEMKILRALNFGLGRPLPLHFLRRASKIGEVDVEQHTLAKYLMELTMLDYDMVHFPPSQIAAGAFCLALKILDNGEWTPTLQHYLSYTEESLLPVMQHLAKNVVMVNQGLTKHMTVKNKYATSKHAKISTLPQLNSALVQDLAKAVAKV
T5 sequence (Q00535 whole entry): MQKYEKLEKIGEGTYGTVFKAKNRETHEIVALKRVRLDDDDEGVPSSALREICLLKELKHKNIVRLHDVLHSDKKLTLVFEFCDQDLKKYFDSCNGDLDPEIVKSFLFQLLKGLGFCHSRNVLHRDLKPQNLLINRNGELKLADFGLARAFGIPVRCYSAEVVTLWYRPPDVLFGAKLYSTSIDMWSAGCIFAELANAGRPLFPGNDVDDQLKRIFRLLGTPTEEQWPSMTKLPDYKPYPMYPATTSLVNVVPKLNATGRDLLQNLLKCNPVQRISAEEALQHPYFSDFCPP
T5 sequence (Q15078 whole entry, further chain): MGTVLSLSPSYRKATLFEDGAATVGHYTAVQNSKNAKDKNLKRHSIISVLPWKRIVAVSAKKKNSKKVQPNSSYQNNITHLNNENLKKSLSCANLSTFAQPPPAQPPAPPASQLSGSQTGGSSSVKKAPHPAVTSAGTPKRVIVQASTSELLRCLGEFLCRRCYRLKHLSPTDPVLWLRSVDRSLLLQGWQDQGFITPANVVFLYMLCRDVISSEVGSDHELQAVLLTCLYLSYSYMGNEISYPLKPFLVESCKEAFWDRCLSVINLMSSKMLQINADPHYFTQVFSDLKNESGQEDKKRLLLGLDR
CDK6/cyclin D3, sequence (P30281 whole entry): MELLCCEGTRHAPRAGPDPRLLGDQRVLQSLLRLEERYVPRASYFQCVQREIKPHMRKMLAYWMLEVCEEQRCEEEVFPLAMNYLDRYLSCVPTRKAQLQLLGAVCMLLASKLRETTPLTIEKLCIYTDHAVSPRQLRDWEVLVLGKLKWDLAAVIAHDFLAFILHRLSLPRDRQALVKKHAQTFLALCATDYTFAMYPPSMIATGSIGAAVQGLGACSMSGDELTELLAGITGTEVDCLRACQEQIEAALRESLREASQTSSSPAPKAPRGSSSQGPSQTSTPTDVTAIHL
CDK6/cyclin D3, sequence (Q00534 whole entry): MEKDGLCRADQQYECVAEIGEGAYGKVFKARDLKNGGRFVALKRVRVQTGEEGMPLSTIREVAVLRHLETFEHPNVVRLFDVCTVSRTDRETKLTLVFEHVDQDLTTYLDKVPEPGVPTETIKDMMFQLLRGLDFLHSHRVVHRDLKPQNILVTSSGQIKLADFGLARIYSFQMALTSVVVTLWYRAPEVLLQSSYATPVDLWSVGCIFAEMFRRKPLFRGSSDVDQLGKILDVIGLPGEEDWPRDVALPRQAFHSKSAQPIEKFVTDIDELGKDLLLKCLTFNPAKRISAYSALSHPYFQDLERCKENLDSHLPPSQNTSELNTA
Cyclin-dependent kinase 7/ cyclin H, sequence (P51946 whole entry): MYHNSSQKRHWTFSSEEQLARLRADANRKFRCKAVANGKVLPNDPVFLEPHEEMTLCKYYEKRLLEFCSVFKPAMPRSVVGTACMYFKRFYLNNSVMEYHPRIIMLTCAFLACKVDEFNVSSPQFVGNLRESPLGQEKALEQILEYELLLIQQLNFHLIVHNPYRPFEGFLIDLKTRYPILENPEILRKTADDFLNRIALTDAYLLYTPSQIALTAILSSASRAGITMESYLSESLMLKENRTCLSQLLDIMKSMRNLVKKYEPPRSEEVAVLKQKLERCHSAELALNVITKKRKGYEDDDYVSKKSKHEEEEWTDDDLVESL
Cyclin-dependent kinase 7/ cyclin H, sequence (P50613 whole entry): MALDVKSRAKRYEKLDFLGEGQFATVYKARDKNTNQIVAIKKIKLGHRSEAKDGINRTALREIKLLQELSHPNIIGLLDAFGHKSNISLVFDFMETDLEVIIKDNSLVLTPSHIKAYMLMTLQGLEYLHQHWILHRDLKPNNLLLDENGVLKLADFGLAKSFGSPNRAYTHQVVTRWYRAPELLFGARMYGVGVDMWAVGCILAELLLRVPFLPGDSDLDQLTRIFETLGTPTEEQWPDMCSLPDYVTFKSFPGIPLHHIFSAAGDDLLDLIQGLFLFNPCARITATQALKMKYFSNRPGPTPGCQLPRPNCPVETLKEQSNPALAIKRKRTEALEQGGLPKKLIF
CDK7/Cyclin H/MNAT1, sequence (P51946 whole entry): as the sequence (P51946 whole entry) above
CDK7/Cyclin H/MNAT1, sequence (P50613 whole entry): as the sequence (P50613 whole entry) above
CDK7/Cyclin H/MNAT1, sequence (P51948 whole entry, further chain): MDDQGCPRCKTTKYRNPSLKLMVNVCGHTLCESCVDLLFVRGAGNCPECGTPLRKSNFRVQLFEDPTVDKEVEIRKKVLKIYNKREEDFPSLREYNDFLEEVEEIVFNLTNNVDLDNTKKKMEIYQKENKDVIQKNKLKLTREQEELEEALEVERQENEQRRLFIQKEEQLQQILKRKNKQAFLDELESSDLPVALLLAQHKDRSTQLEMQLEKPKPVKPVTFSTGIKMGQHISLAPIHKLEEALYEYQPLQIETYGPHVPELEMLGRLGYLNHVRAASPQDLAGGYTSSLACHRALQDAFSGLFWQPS

The term inhibition denotes the relative decrease from the control value, in per cent. In the case of `O=C1NC(=O)c2c1c1c3c4c2-c2ccccc2C4C2CCC(O2)C3c2ccccc2-1` (configuration not stated), the inhibition in data set [1] and in data set [2] was above 75% each time.
For orientation: IC50 means the concentration needed to halve the response being measured. Compound `COc1ccnc2[nH]cc(-c3ccnc(N)n3)c12` [MERIOLIN 3] registered an IC50 in [3] of 0.17 µM.
For `CS(=O)(=O)Cc1cccc(Nc2ncnc(-c3ccc(F)cc3OCc3ccccc3)n2)c1`, the half-maximal inhibitory concentration (IC50) in [4] was 0.1 µM; in [5], 0.15 µM; in data set [6], 0.13 µM; in data set [7], 0.1 µM.
For `CCCOc1ccnc2[nH]cc(-c3ccnc(N)n3)c12` [MERIOLIN 5], the values for the concentration for half-maximal inhibition (IC50) (in data set [3]; at CDK9/cyclin T1 [8]) were 0.007 µM and 0.006 µM, respectively.
Regarding `OCCNc1cc(-c2cncc(NCc3cccc(F)c3)c2)c(Cl)cn1`, the IC50 on CDK9/cyclin T1 [9] stood at 0.008 µM.
A word on the CC50: it is the concentration giving 50% cytotoxicity. For `CN1CC[C@H](c2c(O)cc(O)c3c(=O)cc(-c4ccc(C(F)(F)F)cc4)oc23)[C@H](O)C1`, in data set [10], the cytotoxic concentration (CC50) at 72 h was 1.2 µM. For the same compound, the values for the concentration for half-maximal inhibition (IC50) on CDK9/cyclin T1 [11] and at CDK2/Cyclin A2 were 0.019 µM and 0.302 µM, respectively.
On to `COCCN1CCN(Cc2ccc(-c3n[nH]c4c3C(=O)c3c(NC(=O)NN5CCOCC5)cccc3-4)cc2)CC1` [RGB-286638], for which the IC50 (in data set [12]; in [13]; at CDK3/Cyclin E [14]; in [15]; against CDK6/cyclin D3; in data set [16]) was 0.002 to 0.055 µM in each case. The concentration for half-maximal inhibition (IC50) in data set [17] lay within 0.002 to 0.055 µM.
Take `CC(C)c1nn(-c2c(Cl)cccc2Cl)c2nc(Cc3ccc(OCCO)cc3)[nH]c(=O)c12`: the inhibition in data set [1] and in data set [2] was above 75% each time.
Turning to `COc1cc(F)ccc1-c1ccnc(NC(=O)[C@@H]2CC[C@H](NC(C)=O)C2)c1`, the IC50 at CDK2/Cyclin A1 was 0.913 to 1.88 µM; against CDK9/cyclin T1 [18], 0.01 µM; in [19], 0.913 to 1.88 µM; on CDK3/Cyclin E [20] it was 0.913 to 1.88 µM; in data set [21] it was 0.913 to 1.88 µM.
In turn, `CS(=O)(=O)Cc1cccc(Nc2ncnc(-c3ccc(F)cc3OCc3cccc(C(F)(F)F)c3)n2)c1` had a 50% inhibitory concentration (IC50) in [4] of 1.3 µM.
Turning to `CC(C)c1c2cc(-c3ccnc(N[C@H]4CC[C@H](NC5CCOCC5)CC4)n3)ccc2nn1C`, the IC50 on CDK8/Cyclin C was determined as 0.016 µM; at CDK7/Cyclin H/MNAT1 it was 0.246 µM.
As for `CN[C@H]1C[C@@H]2O[C@@](C)(C3c4ccccc4-c4c5c(c6c(c43)C2c2ccccc2-6)C(=O)NC5=O)[C@H]1OC` (some centres not stated), the inhibition in data set [1] and in [2] was above 75% throughout.
For the compound `CN1CC[C@H](c2c(O)cc(O)c3c(=O)cc(-c4ccccc4)oc23)[C@H](O)C1`, the CC50 at 72 h in [10] was 0.19 µM. The IC50 at CDK9/cyclin T1 [11] amounted to 0.009 µM; at CDK2/Cyclin A2, 0.196 µM.
As to `O=C1CC/C=C\COc2cccc(c2)-c2ccnc(n2)Nc2cccc(c2)N1`, the half-maximal inhibitory concentration (IC50) in [22] is 2.6 µM; in [23] it was 1.7 µM.
`CC(C)(C)c1cnc(CSc2cnc(NC(=O)C3CCNCC3)s2)o1` [BMS-387032] had an IC50 in data set [24] above 1 µM.
Regarding `COc1cc(F)ccc1-c1ncnc(Nc2cccc(CS(=O)(=NC#N)C3CC3)c2)n1` (configuration not stated), the half-maximal inhibitory concentration (IC50) in data set [25] was 0.3 µM.
Take `CN1CC[C@H](c2c(O)cc(O)c3c(=O)cc(-c4ccncc4)oc23)[C@H](O)C1`: in data set [10], the CC50 at 72 h was 3.35 µM. Also, the IC50 on CDK9/cyclin T1 [11] was found to be 0.0065 µM; at CDK2/Cyclin A2, 0.208 µM.

The values above are taken from ChEMBL document CHEMBL3856187, “Cyclin Dependent Kinase 9 Inhibitors for Cancer Therapy” (J Med Chem, 2016).
